# From patent publication US9737525B2, “Small molecule activators of NRF2 pathway” (The General Hospital Corporation, priority 2013, dated 2017)
# Read-outs that look alike come from different tables or passages of the source.
# Assays:
# [1] = test system: BV2 microglia cells; assay: Transcriptional expression profiling in LPS-induced microglia BV2 cells (qRT-PCR); type: cell-based, mouse
# Experimental: To further validate the NRF2 activating properties of MIND4, effects of the compound on repression of inflammatory responses were tested in LPS-induced BV2 microglia cells, a model in which the influence of NRF2 signaling on inflammation has been well established (Koh et al., 2011). A BV2 mouse microglia cell line was maintained in DMEM media supplemented with 10% FBS (Sigma) and antibiotic-antimycotic mix. Cells were seeded into 12 well plates at the density of 3×10^5 cells/well. Cells were treated with the indicated concentrations of MIND4, MIND4-17, and MIND4A compounds for 24 hr. Cells were then stimulated with 10 ng/ml LPS (E. coli) for 2 hr. Total RNA was isolated using ZR Miniprep kit (Zymo Research). 1 μg of total RNA was used to prepare cDNA. Gene expression was analyzed using VeriQuest SYBR green assay in Roche480 thermocycler. The sequences of gene-specific primers for qPCR were as follows: […]
# (§1) Immortalized bone marrow derived mouse macrophages (iBMMs) and BV2 mouse microglia cell line were used in the present study. Both cell types were maintained in DMEM media supplemented with 10% FBS and antibiotic-antimycotic mix. Cells were seeded into 12 well plates at the density of 3×10^5 cells/well. Cells were treated with the indicated concentrations of MIND4-17 compounds for 24 hr. Cells were then stimulated with 10 ng/ml LPS (E. coli, Sigma) for 2 hr. Total RNA was isolated using ZR Miniprep kit (Zymo Research). […] of total RNA was used to prepare cDNA. Gene expression was analyzed using VeriQuest SYBR green assay (Affymetrix) in Roche480 thermocycler. Primer sequences are as described above (see Example 9).
# [2] = target: recombinant human KEAP1 protein (Homo sapiens (Human), UniProt Q14145); assay: SPR (Surface Plasmon Resonance) Biacore binding assay
# Chain of recombinant human KEAP1 protein (Q14145 whole entry): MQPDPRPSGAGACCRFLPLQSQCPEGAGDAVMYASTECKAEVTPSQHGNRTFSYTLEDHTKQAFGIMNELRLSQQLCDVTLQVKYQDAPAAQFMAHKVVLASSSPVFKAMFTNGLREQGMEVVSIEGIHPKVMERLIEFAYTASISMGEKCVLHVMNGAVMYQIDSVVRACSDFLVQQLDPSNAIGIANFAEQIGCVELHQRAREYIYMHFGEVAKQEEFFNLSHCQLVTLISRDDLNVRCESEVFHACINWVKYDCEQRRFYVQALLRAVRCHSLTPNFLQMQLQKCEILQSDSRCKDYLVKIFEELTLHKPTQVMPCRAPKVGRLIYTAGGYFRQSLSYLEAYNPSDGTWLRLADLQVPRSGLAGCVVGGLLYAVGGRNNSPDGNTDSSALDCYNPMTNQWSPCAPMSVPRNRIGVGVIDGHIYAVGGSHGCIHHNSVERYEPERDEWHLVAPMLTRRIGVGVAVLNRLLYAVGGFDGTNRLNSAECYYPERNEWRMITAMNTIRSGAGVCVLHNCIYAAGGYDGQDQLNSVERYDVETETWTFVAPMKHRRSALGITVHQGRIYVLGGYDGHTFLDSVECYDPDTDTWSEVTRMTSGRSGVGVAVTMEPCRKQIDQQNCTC
# Experimental: Briefly, compound MIND4-17 and MIND4 binding to baculovirous expressed KEAP1 by Surface Plasmon Resonance (SPR) binding Biacore assay was performed by CRO Precision Antibody, Inc. Binding experiments were performed on Biacore T-200 at 25° C. using CM5 chip. Anti-GST tag antibody was immobilized by amine coupling. The ligand KEAP1 was captured until 800 RU was reached. Antigen was flowed over the chip at variable concentrations. Binding of analyte to the ligand was monitored in real time to obtain on (ka) and off (kd) rates. The equilibrium constant (KD) was calculated from the observed ka and kd. In pilot experiment the analytes MIND4 and MIND4-17 were flowed over the chip at 3 different concentrations as indicated and kinetic analysis was performed. Full kinetic analysis was performed for MIND4-17 using analyte concentrations of 140 μM (the saturating amount) and run at serial dilutions 70, 35, 17.5, 8.75, 4.375 and 0. Chi square (χ^2) analysis was carried out between the actual Sensorgram (colored line) and the sensorgram generated from the BIAnalysis software (black line) to determine the accuracy of the analysis. (χ^2) value within 2-1 is considered significant (accurate) and below 1 is highly significant (highly accurate). The flow rate used for capturing the ligand was […] and the flow rate for kinetics analysis was […]. The Biacore binding assay was performed using assay buffer: 10 mM HEPES buffer (pH 7.4), 150 mM NaCl, 3 mM EDTA, 0.005% P20 (polyoxyethylenesorbitan), 5% DMSO; regeneration buffer: 10 mM HEPES buffer (pH 7.4), 150 mM NaCl, 3 mM EDTA, 0.005% P20 (polyoxyethylenesorbitan), 5% DMSO; and conjugation buffer: 10 mM sodium acetate buffer (pH 4.5).
# [3] = test system: primary human monocytes; assay: LDH cell death assay in primary human monocytes; type: cell-based; settings: any concentration
# Experimental: Blood samples were obtained from control subjects and genetically-diagnosed, symptomatic HD patients. Patients were classed as having early or moderate-stage disease using the total functional capacity (TFC) scale (13-7, early; 6-3, moderate) [Marder, 2000]. Subjects with inflammatory or infective conditions were excluded. Cells were isolated from whole blood, as previously described [Björkqvist, 2008]. In brief, 50 ml whole blood was collected in heparin (CP Pharmaceuticals) and leukocytes were isolated by density gradient centrifugation. Monocytes were sorted via magnetic cell separation columns using anti-CD14 microbeads (Miltenyi Biotec). Monocytes were seeded at 1×10^5 cells per well in 96-well PRIMARIA™ tissue culture plates (BD Falcon) with R10 media (RPMI culture medium supplemented with 10% FCS, 2 mM L-glutamine, 50 U/ml penicillin and […] streptomycin (Invitrogen)). […] Supernatants were analyzed using the human pro-inflammatory II (4-plex) MSD assay measuring IL-1b, IL-6, IL-8 and TNFα. […] Cell death was measured using a LDH assay (CytoTox-Fluor™ Cytotoxicity Assay from Promega). Normalized cytokine levels have been analyzed on the logarithmic scale due to their skewed distribution. […] Contrasts of interest were then calculated using linear combinations of parameter estimates.
# [4] = test system: iBMM macrophages; assay: Transcriptional responses in LPS-induced iBMM macrophages (qRT-PCR); type: cell-based, mouse; settings: 24 hr
# Experimental: as §1
# [5] = BV2 cells, dose-dependent, 24 hr
Compound,"TNFα and IL-6 gene expression ([1]; 3 μM 24 hr pre-treatment, LPS-activated BV2 cells)","IL-1β and MCP-1 transcription ([1]; 3 μM 24 hr pre-treatment, basal and LPS-induced BV2 cells)",Kd [2],Mode of binding to KEAP1 [2],"Kd ([2]; 25° C., kinetic analysis)","Expression of inflammatory factors TNFα, IL-6, IL-1β and MCP-1 [1, 5]","Transcription of GCLM and NQO1 [1, 5]",Toxic effect on viability of primary human monocytes [3],"Expression of inflammatory factors TNFα, IL-6, IL-1β and MCP-1 [4]",Transcription of GCLM and NQO1 [4]
"O=[N+]([O-])c1ccc(Sc2nnc(COc3ccccc3)n2-c2ccccc2)c2ncccc12 [MIND4, 5-nitro-8-{[5-(phenoxymethyl)-4-phenyl-4H-1,2,4-triazol-3-yl]thio}quinoline]",correspondingly reduced,repression of both basal and LPS-induced transcription,22.8 µM,reversible binding,22.8 µM,,,,,
O=[N+]([O-])c1ccc(Sc2nnc(COc3ccccc3)n2-c2ccccc2)nc1 [MIND4-17],,,16.5 µM,reversible binding,16.5 µM,repressed transcriptional expression of inflammatory factors,increased transcription of the canonical NRF2 target genes GCLM and NQO1,Neither vehicle (DMSO) or MIND4-17 had a toxic effect,repressed expression of inflammatory factors,increased transcription of GCLM and NQO1
